Results from PMC8566089 (Bioorganic Chemistry, 2021).

Assays:
[1] = system: A431 (squamous skin) cancer cell line; assay: MTT antiproliferative assay, A431; assay type: cell-based; settings: for IC50: Homo sapiens, A-431, 72 h, read-out: IC50 ± SE, A431; for SI (selectivity index), A431: IC50 of RPE1 relative to that of A431
[2] = system: MCF7 (breast) cancer cell line; assay: MTT antiproliferative assay, MCF7; assay type: cell-based; settings: for IC50: Homo sapiens, MCF7, 72 h, read-out: IC50 ± SE, MCF7; for SI (selectivity index), MCF7: IC50 of RPE1 relative to that of MCF7
[3] = system: HCT116 (colon) cancer cell line; assay: MTT antiproliferative assay, HCT116; assay type: cell-based; settings: for IC50: Homo sapiens, HCT-116, 72 h, read-out: IC50 ± SE, HCT116; for SI (selectivity index), HCT116: IC50 of RPE1 relative to that of HCT116
[4] = system: RPE1 (normal human immortalized retinal pigment epithelial cell line); assay: MTT assay against normal RPE1 cells; assay type: cell-based; settings: RPE-1, read-out: IC50 ± SE, RPE1
[5] = system: HCT116 (colon cancer cell line); assay: PI-flow cytometry cell cycle analysis; assay type: cell-based; settings: for phase of cell cycle arrest: PI-flow cytometry; for DNA content (%) G0-G1 / DNA content (%) G2/M / DNA content (%) Pre-G1 / DNA content (%) S: at MTT-IC50 of the agent
[6] = system: HCT116 (colon cancer cell line); assay: Annexin V-FITC apoptosis/necrosis study; assay type: cell-based; settings: at MTT-IC50 of the agent
[7] = biological target: T1, VEGFR-2 (Homo sapiens, UniProt P35968); assay: VEGFR-2 Western blot in MCF7; assay type: cell-based; settings: for VEGFR2 MCF7 % Inhibition: Western blot at MTT-IC50; for VEGFR2 MCF7 RQ (relative quantification): Western blot at MTT-IC50, control RQ 3.725
T1 sequence (P35968 20-1356): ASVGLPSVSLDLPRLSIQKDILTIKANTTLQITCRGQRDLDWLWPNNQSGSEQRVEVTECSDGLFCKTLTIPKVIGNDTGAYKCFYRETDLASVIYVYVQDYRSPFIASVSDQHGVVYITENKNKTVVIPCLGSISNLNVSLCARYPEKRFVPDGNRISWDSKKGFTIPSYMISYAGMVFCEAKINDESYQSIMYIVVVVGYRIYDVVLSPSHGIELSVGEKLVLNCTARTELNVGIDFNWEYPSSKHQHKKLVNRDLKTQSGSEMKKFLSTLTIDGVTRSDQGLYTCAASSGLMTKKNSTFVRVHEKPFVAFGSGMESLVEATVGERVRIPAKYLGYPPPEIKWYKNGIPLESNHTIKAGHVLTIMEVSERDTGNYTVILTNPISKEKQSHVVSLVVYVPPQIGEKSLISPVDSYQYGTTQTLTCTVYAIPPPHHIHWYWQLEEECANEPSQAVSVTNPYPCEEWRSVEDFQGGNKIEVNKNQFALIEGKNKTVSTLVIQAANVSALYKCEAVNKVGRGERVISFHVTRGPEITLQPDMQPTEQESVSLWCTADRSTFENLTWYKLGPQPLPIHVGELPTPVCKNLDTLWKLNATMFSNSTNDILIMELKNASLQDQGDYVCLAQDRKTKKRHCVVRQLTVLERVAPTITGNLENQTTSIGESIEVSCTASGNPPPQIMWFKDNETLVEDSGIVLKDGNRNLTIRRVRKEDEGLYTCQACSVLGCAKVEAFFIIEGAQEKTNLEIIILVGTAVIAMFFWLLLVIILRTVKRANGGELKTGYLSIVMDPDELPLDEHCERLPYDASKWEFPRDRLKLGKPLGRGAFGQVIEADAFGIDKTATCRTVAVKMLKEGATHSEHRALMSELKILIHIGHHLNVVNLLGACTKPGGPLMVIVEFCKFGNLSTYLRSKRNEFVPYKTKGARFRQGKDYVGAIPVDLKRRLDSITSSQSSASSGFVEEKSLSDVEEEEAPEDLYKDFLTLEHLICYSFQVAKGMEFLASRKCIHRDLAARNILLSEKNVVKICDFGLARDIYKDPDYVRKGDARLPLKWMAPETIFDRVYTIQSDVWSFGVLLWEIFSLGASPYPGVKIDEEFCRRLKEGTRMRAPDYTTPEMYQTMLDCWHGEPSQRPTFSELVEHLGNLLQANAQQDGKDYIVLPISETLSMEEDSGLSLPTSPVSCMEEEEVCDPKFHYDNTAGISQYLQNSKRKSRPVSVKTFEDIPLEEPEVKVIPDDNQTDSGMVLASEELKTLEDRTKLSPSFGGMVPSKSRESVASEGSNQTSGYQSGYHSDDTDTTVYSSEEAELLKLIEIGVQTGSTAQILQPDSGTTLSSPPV

[8] = biological target: T1, VEGFR-2; assay: VEGFR-2 Western blot in HCT116; assay type: cell-based; settings: for VEGFR2 HCT116 % Inhibition: Western blot at MTT-IC50; for VEGFR2 HCT116 RQ (relative quantification): Western blot at MTT-IC50, control RQ 3.817
[9] = biological target: T2, EGFR (Homo sapiens, UniProt P00533); assay: EGFR Western blot in MCF7; assay type: cell-based; settings: for EGFR MCF7 % Inhibition: Western blot at MTT-IC50; for EGFR MCF7 RQ (relative quantification): Western blot at MTT-IC50, control RQ 4.226
T2 sequence (P00533 25-1210): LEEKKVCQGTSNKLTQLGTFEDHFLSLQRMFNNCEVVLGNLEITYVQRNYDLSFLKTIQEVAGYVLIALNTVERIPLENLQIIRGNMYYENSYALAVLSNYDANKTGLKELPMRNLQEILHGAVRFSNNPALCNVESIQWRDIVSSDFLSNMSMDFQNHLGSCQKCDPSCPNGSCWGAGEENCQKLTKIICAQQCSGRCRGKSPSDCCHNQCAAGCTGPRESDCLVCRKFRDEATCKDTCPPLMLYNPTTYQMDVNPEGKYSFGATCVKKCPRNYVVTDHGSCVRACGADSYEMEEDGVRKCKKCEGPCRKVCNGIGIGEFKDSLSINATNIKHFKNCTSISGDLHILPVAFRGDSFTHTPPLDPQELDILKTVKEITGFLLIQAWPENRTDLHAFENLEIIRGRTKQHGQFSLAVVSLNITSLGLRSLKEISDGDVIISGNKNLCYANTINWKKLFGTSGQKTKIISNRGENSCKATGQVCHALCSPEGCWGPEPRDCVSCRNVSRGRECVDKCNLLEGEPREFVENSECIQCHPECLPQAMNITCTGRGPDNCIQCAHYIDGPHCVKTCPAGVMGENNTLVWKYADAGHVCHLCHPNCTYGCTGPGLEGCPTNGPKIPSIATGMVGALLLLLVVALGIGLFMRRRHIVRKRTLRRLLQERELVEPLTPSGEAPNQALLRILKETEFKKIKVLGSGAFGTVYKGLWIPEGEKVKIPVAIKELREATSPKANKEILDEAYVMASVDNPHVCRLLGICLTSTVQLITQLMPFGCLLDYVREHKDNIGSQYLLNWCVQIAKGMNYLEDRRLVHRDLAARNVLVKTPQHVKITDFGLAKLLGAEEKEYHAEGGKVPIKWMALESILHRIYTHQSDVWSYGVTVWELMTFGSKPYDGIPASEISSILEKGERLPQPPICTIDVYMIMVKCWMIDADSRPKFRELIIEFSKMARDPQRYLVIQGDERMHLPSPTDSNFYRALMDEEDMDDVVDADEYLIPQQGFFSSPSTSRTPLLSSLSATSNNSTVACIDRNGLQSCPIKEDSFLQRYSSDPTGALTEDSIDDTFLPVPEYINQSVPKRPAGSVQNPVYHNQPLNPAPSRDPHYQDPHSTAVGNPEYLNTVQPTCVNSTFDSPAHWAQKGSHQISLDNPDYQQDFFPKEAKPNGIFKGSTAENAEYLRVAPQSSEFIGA

[10] = biological target: T2, EGFR; assay: EGFR Western blot in HCT116; assay type: cell-based; settings: for EGFR HCT116 % Inhibition: Western blot at MTT-IC50; for EGFR HCT116 RQ (relative quantification): Western blot at MTT-IC50, control RQ 4.0382
[11] = biological target: T3, COX-1 (Ovis aries, UniProt P05979); assay: COX-1 inhibitor screening kit; assay type: biochemical
T3 sequence (P05979 25-600): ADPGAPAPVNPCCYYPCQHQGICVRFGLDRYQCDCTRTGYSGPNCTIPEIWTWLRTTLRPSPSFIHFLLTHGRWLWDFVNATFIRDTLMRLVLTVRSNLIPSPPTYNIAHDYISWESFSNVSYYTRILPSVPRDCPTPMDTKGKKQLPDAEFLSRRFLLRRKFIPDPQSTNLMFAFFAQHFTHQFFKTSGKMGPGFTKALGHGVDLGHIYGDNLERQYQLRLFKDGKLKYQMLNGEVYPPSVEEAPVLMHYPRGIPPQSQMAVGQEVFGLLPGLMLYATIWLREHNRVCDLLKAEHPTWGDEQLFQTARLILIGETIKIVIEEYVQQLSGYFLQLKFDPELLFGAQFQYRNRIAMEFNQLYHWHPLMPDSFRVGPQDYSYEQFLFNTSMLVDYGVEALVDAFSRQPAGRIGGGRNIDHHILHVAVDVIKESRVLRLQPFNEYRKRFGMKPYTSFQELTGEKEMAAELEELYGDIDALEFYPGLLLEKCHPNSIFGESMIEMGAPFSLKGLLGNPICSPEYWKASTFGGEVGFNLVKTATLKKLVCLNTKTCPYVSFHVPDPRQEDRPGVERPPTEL

[12] = biological target: T4, COX-2 (Homo sapiens, UniProt P35354); assay: COX-2 inhibitor screening kit; assay type: biochemical
T4 sequence (P35354 18-604): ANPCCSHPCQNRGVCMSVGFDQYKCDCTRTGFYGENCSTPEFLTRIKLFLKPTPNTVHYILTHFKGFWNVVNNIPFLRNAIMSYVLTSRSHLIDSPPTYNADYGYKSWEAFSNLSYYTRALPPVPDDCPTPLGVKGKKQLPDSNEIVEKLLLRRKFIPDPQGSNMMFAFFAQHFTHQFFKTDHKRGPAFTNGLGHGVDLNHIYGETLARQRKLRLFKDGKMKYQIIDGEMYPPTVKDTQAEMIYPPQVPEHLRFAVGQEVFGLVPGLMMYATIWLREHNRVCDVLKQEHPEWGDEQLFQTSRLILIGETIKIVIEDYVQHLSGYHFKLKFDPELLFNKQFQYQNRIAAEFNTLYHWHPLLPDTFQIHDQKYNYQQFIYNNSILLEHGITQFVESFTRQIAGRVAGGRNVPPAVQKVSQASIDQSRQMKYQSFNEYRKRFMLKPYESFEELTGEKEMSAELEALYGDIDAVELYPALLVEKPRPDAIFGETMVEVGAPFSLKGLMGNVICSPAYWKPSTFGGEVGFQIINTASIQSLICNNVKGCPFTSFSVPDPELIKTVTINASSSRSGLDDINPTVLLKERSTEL

[13] = system: SARS-CoV-2 (hCoV-19/Egypt/NRC-03/2020); settings: SARS-CoV-2 / VERO-E6

SMILES	IC50 [1] [µM]	SI (selectivity index), A431 [1]	IC50 [2] [µM]	SI (selectivity index), MCF7 [2]	IC50 [3] [µM]	SI (selectivity index), HCT116 [3]	IC50 [4] [µM]	phase of cell cycle arrest [5]	VEGFR2 MCF7 % Inhibition [7] [%]	VEGFR2 MCF7 RQ (relative quantification) [7]	VEGFR2 HCT116 % Inhibition [8] [%]	VEGFR2 HCT116 RQ (relative quantification) [8]	EGFR MCF7 % Inhibition [9] [%]	EGFR MCF7 RQ (relative quantification) [9]	EGFR HCT116 % Inhibition [10] [%]	EGFR HCT116 RQ (relative quantification) [10]	IC50 [11] [µM]	IC50 [12] [µM]	SI = IC50(COX-1)/IC50(COX-2) [12]	SI = CC50/IC50 [13]	also measured
CC(=O)Oc1ccccc1C(=O)N1C/C(=C\c2ccc(Cl)cc2)C(=O)/C(=C/c2ccc(Cl)cc2)C1 [Compound 5c, 2-[3,5-Bis((E)-4-chlorobenzylidene)-4-oxopiperidine-1-carbonyl]phenyl acetate]	1.21 ± 0.11	7.3	2.81 ± 0.26	3.15	0.986 ± 0.08	8.96	8.83 ± 0.68	G1-phase	59.5	1.51	73.3	1.02	85.6	0.61	62.9	1.5	0.271	2.25	0.121	1.7	DNA content (%) G0-G1 [5]: 55.28%; DNA content (%) G2/M [5]: 3.59%; DNA content (%) Pre-G1 [5]: 44.28%; DNA content (%) S [5]: 41.13%; Apoptosis (%) Early [6]: 2.29%; Apoptosis (%) Late [6]: 28.58%; Apoptosis (%) Total [6]: 44.28%; Necrosis (%) [6]: 13.41%
CCN(CC)CCNC(=O)c1c(C)[nH]c(/C=C2\C(=O)Nc3ccc(F)cc32)c1C [Sunitinib, reference compound]	–	–	–	–	–	–	–	S-phase	–	–	–	–	–	–	–	–	–	–	–	–	DNA content (%) G0-G1 [5]: 46.18%; DNA content (%) G2/M [5]: 7.59%; DNA content (%) Pre-G1 [5]: 31.69%; DNA content (%) S [5]: 46.23%; Apoptosis (%) Early [6]: 2.54%; Apoptosis (%) Late [6]: 21.69%; Apoptosis (%) Total [6]: 31.69%; Necrosis (%) [6]: 7.46%
CC(=O)Oc1ccccc1C(=O)N1C/C(=C\c2ccc(C)cc2)C(=O)/C(=C/c2ccc(C)cc2)C1 [Compound 5e, 2-[3,5-Bis((E)-4-methylbenzylidene)-4-oxopiperidine-1-carbonyl]phenyl acetate]	0.639 ± 0.07	15.5	6 ± 0.5	1.65	2.56 ± 0.18	3.87	9.89 ± 0.75	–	40.9	2.202	42.1	2.209	59.6	1.707	58.8	1.664	0.249	1.56	0.160	37.4	–
CC(=O)Oc1ccccc1C(=O)N1C/C(=C\c2cccs2)C(=O)/C(=C/c2cccs2)C1 [Compound 5i, 2-[(3E,5E)-4-Oxo-3,5-bis(thiophen-2-ylmethylene)piperidine-1-carbonyl]phenyl acetate]	2.15 ± 0.15	8.8	5.58 ± 0.52	3.41	9.26 ± 0.61	2.06	19 ± 0.99	–	46.3	2.000	39.8	2.297	63.6	1.540	61.3	1.564	0.455	0.772	0.589	125.6	–
CC(=O)Oc1ccccc1C(=O)N1C/C(=C\c2ccc(F)cc2)C(=O)/C(=C/c2ccc(F)cc2)C1 [Compound 5b, 2-[3,5-Bis((E)-4-fluorobenzylidene)-4-oxopiperidine-1-carbonyl]phenyl acetate]	2.12 ± 0.19	3.9	5.76 ± 0.47	1.44	5.1 ± 0.51	1.63	8.3 ± 0.71	–	57.0	1.6	70.9	1.11	83.7	0.69	72.8	1.1	0.146	0.442	0.330	22.7	–
